Source: ChEMBL document CHEMBL5727989, “Compounds useful as inhibitors of ATR kinase” (2020)

Target: Serine/threonine-protein kinase ATR (Homo sapiens, UniProt Q13535)
Test: Inhibition Assay: Assays were carried out at 25° C. in the presence of 5 nM full-length ATR. An assay stock buffer solution was prepared containing all of the reagents listed above, with the exception of ATP and the test compound of interest. 13.5 μL of the stock solution was placed in a 96 well plate followed by addition of 2 μL of DMSO stock containing serial dilutions of the test compound (typically starting from a final concentration of 15 μM with 3-fold serial dilutions) in duplicate (final DMSO concentration 7%). The plate was pre-incubated for 10 minutes at 25° C. and the reaction initiated by addition of 15 μL [γ-33P]ATP (final concentration 10 μM). The reaction was stopped after 24 hours by the addition of 30 μL 0.1M phosphoric acid containing 2 mM ATP. A multiscreen phosphocellulose filter 96-well plate (Millipore, Cat no. MAPHN0B50) was pretreated with 100 μL 0.2M phosphoric acid prior to the addition of 45 μL of the stopped assay mixture. The plate was washed with 5×200 μL 0.2M phosphoric acid. After drying, 100 μL Optiphase SuperMix liquid scintillation cocktail (Perkin Elmer) was added to the well prior to scintillation counting (1450 Microbeta Liquid Scintillation Counter, Wallac).

Serine/threonine-protein kinase ATR, sequence (Q13535 whole entry): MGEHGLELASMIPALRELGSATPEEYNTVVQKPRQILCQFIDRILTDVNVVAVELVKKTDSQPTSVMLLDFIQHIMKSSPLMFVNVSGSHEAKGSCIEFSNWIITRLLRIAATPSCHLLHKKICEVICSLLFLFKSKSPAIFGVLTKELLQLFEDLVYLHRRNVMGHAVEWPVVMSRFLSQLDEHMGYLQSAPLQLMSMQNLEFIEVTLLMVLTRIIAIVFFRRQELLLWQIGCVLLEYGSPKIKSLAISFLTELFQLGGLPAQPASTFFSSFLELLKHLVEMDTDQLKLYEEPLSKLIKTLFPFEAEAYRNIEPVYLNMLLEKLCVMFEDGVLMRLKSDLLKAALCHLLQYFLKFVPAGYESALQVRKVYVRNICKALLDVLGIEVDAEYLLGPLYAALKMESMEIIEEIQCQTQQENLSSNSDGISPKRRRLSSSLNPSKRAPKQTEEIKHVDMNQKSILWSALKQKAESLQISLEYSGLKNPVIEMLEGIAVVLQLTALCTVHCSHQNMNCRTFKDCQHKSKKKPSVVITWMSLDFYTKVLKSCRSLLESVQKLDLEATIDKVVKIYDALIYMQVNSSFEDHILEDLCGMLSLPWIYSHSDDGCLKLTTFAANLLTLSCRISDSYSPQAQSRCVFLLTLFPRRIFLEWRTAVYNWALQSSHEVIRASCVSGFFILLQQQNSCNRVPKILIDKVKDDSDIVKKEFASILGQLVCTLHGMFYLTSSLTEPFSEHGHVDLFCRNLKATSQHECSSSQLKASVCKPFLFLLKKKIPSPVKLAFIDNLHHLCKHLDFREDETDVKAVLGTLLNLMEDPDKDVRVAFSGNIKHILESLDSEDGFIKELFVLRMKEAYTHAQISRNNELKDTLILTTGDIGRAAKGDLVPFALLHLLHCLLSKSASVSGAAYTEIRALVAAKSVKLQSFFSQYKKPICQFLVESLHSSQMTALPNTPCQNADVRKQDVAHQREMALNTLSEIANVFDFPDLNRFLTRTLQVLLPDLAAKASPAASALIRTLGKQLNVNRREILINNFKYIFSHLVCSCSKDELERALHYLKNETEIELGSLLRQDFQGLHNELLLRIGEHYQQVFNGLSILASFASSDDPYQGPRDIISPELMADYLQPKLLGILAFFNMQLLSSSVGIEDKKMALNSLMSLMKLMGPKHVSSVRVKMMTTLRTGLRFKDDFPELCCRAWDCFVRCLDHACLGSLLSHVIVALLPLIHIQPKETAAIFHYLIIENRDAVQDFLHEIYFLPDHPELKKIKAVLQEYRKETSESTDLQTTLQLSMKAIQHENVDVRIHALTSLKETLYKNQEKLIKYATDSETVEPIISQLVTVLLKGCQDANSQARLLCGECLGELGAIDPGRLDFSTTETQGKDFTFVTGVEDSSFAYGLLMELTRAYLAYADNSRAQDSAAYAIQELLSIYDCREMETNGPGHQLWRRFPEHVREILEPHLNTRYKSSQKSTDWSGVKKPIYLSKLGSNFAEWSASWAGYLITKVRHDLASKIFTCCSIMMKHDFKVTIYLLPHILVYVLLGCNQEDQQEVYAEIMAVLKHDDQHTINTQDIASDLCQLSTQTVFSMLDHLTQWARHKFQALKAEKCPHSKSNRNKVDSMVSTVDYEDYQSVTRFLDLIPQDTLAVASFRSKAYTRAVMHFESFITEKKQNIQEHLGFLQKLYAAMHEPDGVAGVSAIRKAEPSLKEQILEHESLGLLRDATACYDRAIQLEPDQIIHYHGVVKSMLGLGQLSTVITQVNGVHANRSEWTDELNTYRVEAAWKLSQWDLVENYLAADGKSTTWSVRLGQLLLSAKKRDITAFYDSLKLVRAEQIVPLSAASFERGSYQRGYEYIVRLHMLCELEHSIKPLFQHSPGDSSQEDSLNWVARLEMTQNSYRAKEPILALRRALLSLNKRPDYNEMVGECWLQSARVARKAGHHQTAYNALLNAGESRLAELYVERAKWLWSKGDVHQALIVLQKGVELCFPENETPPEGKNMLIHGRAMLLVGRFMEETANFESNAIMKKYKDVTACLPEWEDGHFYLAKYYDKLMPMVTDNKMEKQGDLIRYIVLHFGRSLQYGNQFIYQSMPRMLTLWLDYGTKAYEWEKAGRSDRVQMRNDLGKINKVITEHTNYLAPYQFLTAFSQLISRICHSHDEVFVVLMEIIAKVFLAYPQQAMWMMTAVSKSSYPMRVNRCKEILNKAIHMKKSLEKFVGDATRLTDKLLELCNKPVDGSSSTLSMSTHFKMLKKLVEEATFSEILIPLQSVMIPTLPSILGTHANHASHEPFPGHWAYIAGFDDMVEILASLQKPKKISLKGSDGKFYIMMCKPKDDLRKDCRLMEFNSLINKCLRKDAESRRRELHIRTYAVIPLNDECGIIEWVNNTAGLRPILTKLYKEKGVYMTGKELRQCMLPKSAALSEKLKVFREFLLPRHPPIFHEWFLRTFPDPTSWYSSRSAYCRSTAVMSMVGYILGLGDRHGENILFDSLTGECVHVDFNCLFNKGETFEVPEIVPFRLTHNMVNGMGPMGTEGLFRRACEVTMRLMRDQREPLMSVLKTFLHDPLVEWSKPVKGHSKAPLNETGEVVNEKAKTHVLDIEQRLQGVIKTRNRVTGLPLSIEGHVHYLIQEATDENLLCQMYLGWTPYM

SMILES: Cc1nn(C)cc1-c1ccncc1NC(=O)c1c(N)nn2cc(F)cnc12
- Ki: in the range around 505 nM

SMILES: Nc1nn2cc(F)cnc2c1C(=O)Nc1cnccc1N1CCOCC1
- Ki: in the range around 505 nM

SMILES: CNC(=O)C1CCN(c2c(F)cncc2NC(=O)c2c(N)nn3cc(F)cnc23)CC1
- Ki: in the range around 505 nM

SMILES: COC1CCN(c2ccncc2NC(=O)c2c(N)nn3cc(F)cnc23)CC1
- Ki: in the range around 505 nM

SMILES: Nc1nn2cc(F)cnc2c1C(=O)Nc1cnccc1N1CCCCC1
- Ki: in the range around 505 nM

SMILES: CN(C)CCNC(=O)C1CCN(c2c(F)cncc2NC(=O)c2c(N)nn3cc(F)cnc23)CC1
- Ki: in the range around 505 nM
